Assay results as given in ChEMBL document CHEMBL1201862, “PubChem BioAssay data set” (2004).
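Protocol summary: plate cells (96-well), add compound at 5 concentrations, incubate 48 h, interpolate endpoints linearly. At the GI50, growth is halved.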 Active and inactive are the calls of the source. Rule as the data show it: active = GI50 up to about 1.1 µM and inactive = higher.

Key:
Test in all cases: NCI-60 cell line screen, 48 h
[1] = test system: CAKI-1
[2] = test system: HCT-116
[3] = test system: HOP-92
[4] = test system: K562
[5] = test system: M14
[6] = test system: MDA-MB-231
[7] = test system: MDA-MB-435
[8] = test system: MDA-N
[9] = test system: Malme-3M
[10] = test system: NCI-H522
[11] = test system: PC-3
[12] = test system: RXF 393
[13] = test system: SF-295
[14] = test system: SK-MEL-2
[15] = test system: T47D
[16] = test system: UACC-62
[17] = test system: HL-60
[18] = test system: SF-539
[19] = test system: SR

SMILES | GI50 [1] | GI50 [2] | GI50 [3] | GI50 [4] | GI50 [5] | GI50 [6] | GI50 [7] | GI50 [8] | GI50 [9] | GI50 [10] | GI50 [11] | GI50 [12] | GI50 [13] | GI50 [14] | GI50 [15] | GI50 [16] | GI50 [17] | GI50 [18] | GI50 [19]
CC(=O)O[C@H]1C[C@@H](OC(C)=O)[C@@](C)(O)[C@@H]2[C@@H](OC(C)=O)[C@@]3(O)[C@H](/C=C(/CCl)[C@H]4O[C@H]4[C@@H](OC(C)=O)[C@@]12C)OC(=O)[C@@H]3C | > 25 µM (inactive) | > 25 µM (inactive) | > 25 µM (inactive) | > 25 µM (inactive) | > 25 µM (inactive) | > 25 µM (inactive) | 19.7 µM (inactive) | 12 µM (inactive) | > 25 µM (inactive) | > 25 µM (inactive) | > 25 µM (inactive) | 19.8 µM (inactive) | 17.7 µM (inactive) | > 25 µM (inactive) | > 25 µM (inactive) | > 25 µM (inactive) | – | – | –
CN(C)C(C1=C(O)C(c2ccccc2)N(c2ccccc2)C1=O)N1CCOCC1 (stereo not drawn) | > 10 µM (inactive) | > 10 µM (inactive) | > 10 µM (inactive) | > 10 µM (inactive) | > 10 µM (inactive) | > 10 µM (inactive) | > 10 µM (inactive) | > 10 µM (inactive) | > 10 µM (inactive) | > 10 µM (inactive) | > 10 µM (inactive) | > 10 µM (inactive) | > 10 µM (inactive) | > 10 µM (inactive) | > 10 µM (inactive) | > 10 µM (inactive) | > 10 µM (inactive) | > 10 µM (inactive) | –
O=c1c(Cc2ccc(Cl)cc2)nnc2sc(-c3ccc(-c4ccc(Cl)cc4Cl)o3)nn12 | 73.5 µM (inactive) | 27.5 µM (inactive) | 38.5 µM (inactive) | 89.9 µM (inactive) | 95.5 µM (inactive) | 93.3 µM (inactive) | 71 µM (inactive) | 48 µM (inactive) | > 100 µM (inactive) | 52.8 µM (inactive) | 79.8 µM (inactive) | 53.8 µM (inactive) | 83.6 µM (inactive) | 36.7 µM (inactive) | 74.5 µM (inactive) | 63.1 µM (inactive) | 23.2 µM (inactive) | 85.7 µM (inactive) | –
CC1C[C@]2(C)C(=O)N(c3ccccc3)C(=N)[C@@H]2N(C)c2ccccc21 (stereo partly drawn) | > 100 µM (inactive) | > 100 µM (inactive) | – | > 100 µM (inactive) | > 100 µM (inactive) | > 100 µM (inactive) | > 100 µM (inactive) | > 100 µM (inactive) | > 100 µM (inactive) | > 100 µM (inactive) | > 100 µM (inactive) | > 100 µM (inactive) | > 100 µM (inactive) | > 100 µM (inactive) | > 100 µM (inactive) | > 100 µM (inactive) | > 100 µM (inactive) | > 100 µM (inactive) | > 100 µM (inactive)
CC1=CC(=O)/C(=C/N2CCNC2=S)C(=O)O1 | > 100 µM (inactive) | > 100 µM (inactive) | > 100 µM (inactive) | > 100 µM (inactive) | > 100 µM (inactive) | > 100 µM (inactive) | > 100 µM (inactive) | > 100 µM (inactive) | – | > 100 µM (inactive) | > 100 µM (inactive) | > 100 µM (inactive) | > 100 µM (inactive) | > 100 µM (inactive) | > 100 µM (inactive) | > 100 µM (inactive) | > 100 µM (inactive) | > 100 µM (inactive) | –
N#CCCCCC12C3C(=O)N(c4ccccc4)C(=O)C3ON1O[C@@H]1C(=O)N(c3ccccc3)C(=O)[C@@H]12 (stereo partly drawn) | > 100 µM (inactive) | – | > 100 µM (inactive) | > 100 µM (inactive) | > 100 µM (inactive) | > 100 µM (inactive) | > 100 µM (inactive) | > 100 µM (inactive) | > 100 µM (inactive) | > 100 µM (inactive) | > 100 µM (inactive) | – | > 100 µM (inactive) | – | > 100 µM (inactive) | > 100 µM (inactive) | > 100 µM (inactive) | > 100 µM (inactive) | –
CCOC(=O)c1cn(-c2ccccc2)c(=S)n2c1nc1ccccc12 | 49 µM (inactive) | 42.6 µM (inactive) | 13.9 µM (inactive) | 18.3 µM (inactive) | 38.6 µM (inactive) | > 63.7 µM (inactive) | 32.5 µM (inactive) | 41.1 µM (inactive) | – | – | 24.4 µM (inactive) | 54.8 µM (inactive) | 71.8 µM (inactive) | 32.9 µM (inactive) | 80 µM (inactive) | 53.8 µM (inactive) | – | 32.7 µM (inactive) | 13.6 µM (inactive)
Cc1cccc2nc3cc(O)cc(O)c3c(O)c12 | > 10 µM (inactive) | > 10 µM (inactive) | > 10 µM (inactive) | > 10 µM (inactive) | > 10 µM (inactive) | > 10 µM (inactive) | > 10 µM (inactive) | > 10 µM (inactive) | > 10 µM (inactive) | > 10 µM (inactive) | > 10 µM (inactive) | > 10 µM (inactive) | > 10 µM (inactive) | > 10 µM (inactive) | > 10 µM (inactive) | 6.49 µM (inactive) | – | > 10 µM (inactive) | –
CCN(CC)C(=O)N[C@@H](Cc1ccccc1)C(=O)NC | > 100 µM (inactive) | > 100 µM (inactive) | – | > 100 µM (inactive) | > 100 µM (inactive) | > 100 µM (inactive) | > 100 µM (inactive) | > 100 µM (inactive) | > 100 µM (inactive) | > 100 µM (inactive) | > 100 µM (inactive) | > 100 µM (inactive) | > 100 µM (inactive) | > 100 µM (inactive) | > 100 µM (inactive) | > 100 µM (inactive) | > 100 µM (inactive) | – | > 100 µM (inactive)
CCSc1[nH]c(NC(=S)NC(=O)c2ccccc2Cl)c(C(N)=O)c1C(N)=O | > 10 µM (inactive) | – | > 10 µM (inactive) | > 10 µM (inactive) | > 10 µM (inactive) | > 10 µM (inactive) | > 10 µM (inactive) | > 10 µM (inactive) | > 10 µM (inactive) | – | > 10 µM (inactive) | 4.2 µM (inactive) | > 10 µM (inactive) | – | > 10 µM (inactive) | > 10 µM (inactive) | > 10 µM (inactive) | – | > 10 µM (inactive)
CC1(C)Oc2ccc3c(=O)c4ccccc4oc3c2C1C(=O)O (stereo not drawn) | > 100 µM (inactive) | > 100 µM (inactive) | – | > 100 µM (inactive) | > 100 µM (inactive) | > 100 µM (inactive) | > 100 µM (inactive) | > 100 µM (inactive) | > 100 µM (inactive) | > 100 µM (inactive) | > 100 µM (inactive) | > 100 µM (inactive) | > 100 µM (inactive) | > 100 µM (inactive) | > 100 µM (inactive) | > 100 µM (inactive) | – | > 100 µM (inactive) | > 10 µM (inactive)
CC(=O)OC1C(COC(=O)c2ccccc2)OC(Nc2ncc(-c3ccc(Br)cc3)s2)C(OC(=O)c2ccccc2)C1OC(=O)c1ccccc1 (stereo not drawn) | – | > 100 µM (inactive) | 93.1 µM (inactive) | > 100 µM (inactive) | > 100 µM (inactive) | > 100 µM (inactive) | > 100 µM (inactive) | > 100 µM (inactive) | > 100 µM (inactive) | > 100 µM (inactive) | > 100 µM (inactive) | > 100 µM (inactive) | > 100 µM (inactive) | 14.5 µM (inactive) | > 100 µM (inactive) | > 100 µM (inactive) | – | – | > 100 µM (inactive)
O=C(Nc1ccccc1)OCCN=C1c2ccccc2C(Br)C(Br)c2ccccc21 (stereo not drawn) | 6.49 µM (inactive) | 3.88 µM (inactive) | 8.81 µM (inactive) | 2.8 µM (inactive) | 4.34 µM (inactive) | 15.2 µM (inactive) | 7.93 µM (inactive) | 3.82 µM (inactive) | 6.15 µM (inactive) | 5.37 µM (inactive) | 19.3 µM (inactive) | 3.93 µM (inactive) | 17.1 µM (inactive) | 22.2 µM (inactive) | 8.69 µM (inactive) | 11 µM (inactive) | 1.92 µM (inactive) | 5.07 µM (inactive) | –
C=C1C(=O)C([Si](C)(C)C)=C2C=C(C)C3(CC3)C12C (stereo not drawn) | 35.6 µM (inactive) | 37.5 µM (inactive) | – | 19.1 µM (inactive) | 39.8 µM (inactive) | 23 µM (inactive) | 12.9 µM (inactive) | 22.7 µM (inactive) | 14.7 µM (inactive) | 14 µM (inactive) | 3.36 µM (inactive) | 15.3 µM (inactive) | 30.4 µM (inactive) | 15.6 µM (inactive) | > 100 µM (inactive) | 14.7 µM (inactive) | 7.08 µM (inactive) | – | 0.0279 µM (active)
COc1c(-c2ccc3c(c2)OCO3)oc2cc3c(c(OC)c2c1=O)OCO3 [MELITERNATIN] | 23.8 µM (inactive) | 16.2 µM (inactive) | 15.3 µM (inactive) | 23.8 µM (inactive) | 26.2 µM (inactive) | 43 µM (inactive) | 17.6 µM (inactive) | 18.5 µM (inactive) | 24.8 µM (inactive) | 21.5 µM (inactive) | 21.1 µM (inactive) | 28.5 µM (inactive) | 22.6 µM (inactive) | 19.6 µM (inactive) | 16.2 µM (inactive) | 23.9 µM (inactive) | 1.09 µM (active) | 16.3 µM (inactive) | –
CC(=O)Oc1ccc2c(c1)oc1c3ccc(OC(C)=O)cc3n(C)c(=O)c21 | – | 20.9 µM (inactive) | 28.7 µM (inactive) | 30.5 µM (inactive) | 10.3 µM (inactive) | 27 µM (inactive) | 37.8 µM (inactive) | 32 µM (inactive) | 6.47 µM (inactive) | – | 22.1 µM (inactive) | 38.7 µM (inactive) | 36.7 µM (inactive) | – | 34.8 µM (inactive) | 34.8 µM (inactive) | – | 27.1 µM (inactive) | 33.5 µM (inactive)
